Where “and” joins values, the source holds several entries; their conditions need not be identical. Equal values may be shown once. Toxic doses and inconclusive results are not listed. Cut-off read from the data, not from the text of the source: active = T/C of 150% or more; inactive = T/C below 125%.
Test system: L1210 leukemia ip in BDF1 mice, survival T/C
Experiment: NCI In Vivo Anticancer Drug Screen. Data for tumor model L1210 Leukemia (intraperitoneal) in B6D2F1 (BDF1) mice
Settings: higher = longer survival
Outline: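 Ratio derived from survival: compound-dosed mice over vehicle-dosed mice, all bearing a transplantable tumor.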

[1] = endpoint: mean survival time, dose: 100.0 mg/kg/injection, schedule: Q01DX009 (ip), vehicle: Klucel (hydroxypropylcellulose) (HPC)
[2] = endpoint: mean survival time, dose: 100.0 mg/kg/injection, schedule: Q04DX002 (ip), vehicle: Klucel (hydroxypropylcellulose) (HPC)
[3] = endpoint: mean survival time, dose: 200.0 mg/kg/injection, schedule: Q01DX009 (ip), vehicle: Klucel (hydroxypropylcellulose) (HPC)
[4] = endpoint: mean survival time, dose: 200.0 mg/kg/injection, schedule: Q04DX002 (ip), vehicle: Klucel (hydroxypropylcellulose) (HPC)
[5] = endpoint: mean survival time, dose: 400.0 mg/kg/injection, schedule: Q01DX009 (ip), vehicle: Klucel (hydroxypropylcellulose) (HPC)
[6] = endpoint: mean survival time, dose: 400.0 mg/kg/injection, schedule: Q04DX002 (ip), vehicle: Klucel (hydroxypropylcellulose) (HPC)
[7] = endpoint: mean survival time, dose: 15.0 mg/kg/injection, schedule: Q01DX Z (ip), vehicle: carboxymethylcellulose (CMC)
[8] = endpoint: mean survival time, dose: 30.0 mg/kg/injection, schedule: Q01DX Z (ip), vehicle: carboxymethylcellulose (CMC)
[9] = endpoint: mean survival time, dose: 60.0 mg/kg/injection, schedule: Q01DX Z (ip), vehicle: carboxymethylcellulose (CMC)
[10] = endpoint: mean survival time, dose: 120.0 mg/kg/injection, schedule: Q01DX Z (ip), vehicle: carboxymethylcellulose (CMC)
[11] = endpoint: mean survival time, dose: 240.0 mg/kg/injection, schedule: Q01DX Z (ip), vehicle: carboxymethylcellulose (CMC)
[12] = endpoint: mean survival time, dose: 50.0 mg/kg/injection, schedule: Q01DX001 (ip), vehicle: saline
[13] = endpoint: mean survival time, dose: 200.0 mg/kg/injection, schedule: Q01DX001 (ip), vehicle: saline
[14] = endpoint: mean survival time, dose: 100.0 mg/kg/injection, schedule: Q01DX001 (ip), vehicle: saline

Measured: T/C

CSCS(=O)C[C@H](CO)NC(=O)/C=C/c1c(C)[nH]c(=O)[nH]c1=O (stereo partly specified)
inactive: endpoint: mean survival time, dose: 0.38 mg/kg/injection, schedule: Q01DX001 (ip), vehicle: saline 105 % of control | endpoint: mean survival time, dose: 0.39 mg/kg/injection, schedule: Q04DX002 (ip), vehicle: Klucel (hydroxypropylcellulose) (HPC) 96 % of control | endpoint: mean survival time, dose: 0.75 mg/kg/injection, schedule: Q01DX001 (ip), vehicle: saline 103 % of control | endpoint: mean survival time, dose: 0.75 mg/kg/injection, schedule: Q01DX Z (ip), vehicle: carboxymethylcellulose (CMC) 86 % of control | endpoint: mean survival time, dose: 0.78 mg/kg/injection, schedule: Q04DX002 (ip), vehicle: Klucel (hydroxypropylcellulose) (HPC) 96 % of control | endpoint: mean survival time, dose: 1.1 mg/kg/injection, schedule: Q01DX001 (ip), vehicle: carboxymethylcellulose (CMC) 106 % of control | endpoint: mean survival time, dose: 1.5 mg/kg/injection, schedule: Q01DX001 (ip), vehicle: saline 116 % of control | endpoint: mean survival time, dose: 1.56 mg/kg/injection, schedule: Q04DX002 (ip), vehicle: Klucel (hydroxypropylcellulose) (HPC) 110 % of control | endpoint: mean survival time, dose: 1.7 mg/kg/injection, schedule: Q01DX001 (ip), vehicle: carboxymethylcellulose (CMC) 112 % of control | endpoint: mean survival time, dose: 2.6 mg/kg/injection, schedule: Q01DX001 (ip), vehicle: carboxymethylcellulose (CMC) 112 % of control | endpoint: mean survival time, dose: 3.0 mg/kg/injection, schedule: Q01DX001 (ip), vehicle: saline 111 % of control | endpoint: mean survival time, dose: 3.13 mg/kg/injection, schedule: Q04DX002 (ip), vehicle: Klucel (hydroxypropylcellulose) (HPC) 104 % of control | endpoint: median survival time, dose: 4.0 mg/kg/injection, schedule: Q04DX003 (ip), vehicle: saline 121 % of control

O=C(NC(=S)Nc1cccc(Cl)c1)c1cccc(Br)c1
inactive: endpoint: mean survival time, dose: 100.0 mg/kg/injection, schedule: Q01DX001 (ip), vehicle: Klucel (hydroxypropylcellulose) (HPC) 86 % of control | [1] 98 % of control and 90 % of control | [2] 91 % of control | endpoint: mean survival time, dose: 100.0 mg/kg/injection, schedule: Q04DX003 (ip), vehicle: Klucel (hydroxypropylcellulose) (HPC) 108 % of control | endpoint: mean survival time, dose: 200.0 mg/kg/injection, schedule: Q01DX001 (ip), vehicle: Klucel (hydroxypropylcellulose) (HPC) 117 % of control | [3] 98 % of control and 90 % of control | [4] 93 % of control and 91 % of control | endpoint: mean survival time, dose: 200.0 mg/kg/injection, schedule: Q04DX003 (ip), vehicle: Klucel (hydroxypropylcellulose) (HPC) 107 % of control | endpoint: mean survival time, dose: 400.0 mg/kg/injection, schedule: Q01DX001 (ip), vehicle: Klucel (hydroxypropylcellulose) (HPC) 86 % of control | [5] 87 % of control and 91 % of control | [6] 93 % of control and 91 % of control | endpoint: mean survival time, dose: 400.0 mg/kg/injection, schedule: Q04DX003 (ip), vehicle: Klucel (hydroxypropylcellulose) (HPC) 96 % of control

CCN1C(=O)/C(=C/c2ccncc2)SC1=S
inactive: endpoint: mean survival time, dose: 50.0 mg/kg/injection, schedule: Q01DX Z (ip), vehicle: carboxymethylcellulose (CMC) 96 % of control | endpoint: mean survival time, dose: 100.0 mg/kg/injection, schedule: Q01DX Z (ip), vehicle: carboxymethylcellulose (CMC) 92 % of control | endpoint: mean survival time, dose: 200.0 mg/kg/injection, schedule: Q01DX Z (ip), vehicle: carboxymethylcellulose (CMC) 94 % of control | endpoint: mean survival time, dose: 400.0 mg/kg/injection, schedule: Q01DX Z (ip), vehicle: carboxymethylcellulose (CMC) 91 % of control

O=C(CCCl)Oc1ccc(Cl)cc1
inactive: endpoint: mean survival time, dose: 100.0 mg/kg/injection, schedule: Q04DX003 (ip), vehicle: saline with Tween-80 92 % of control | endpoint: mean survival time, dose: 200.0 mg/kg/injection, schedule: Q04DX003 (ip), vehicle: saline with Tween-80 93 % of control | endpoint: mean survival time, dose: 400.0 mg/kg/injection, schedule: Q04DX003 (ip), vehicle: saline with Tween-80 100 % of control

Cc1cn(C2CC(O)C(CO)O2)c(=O)n(CCCc2ccccc2)c1=O (stereo unspecified)
inactive: endpoint: mean survival time, dose: 50.0 mg/kg/injection, schedule: Q01DX001 (ip), vehicle: carboxymethylcellulose (CMC) 93 % of control | endpoint: mean survival time, dose: 100.0 mg/kg/injection, schedule: Q01DX001 (ip), vehicle: carboxymethylcellulose (CMC) 90 % of control | endpoint: mean survival time, dose: 200.0 mg/kg/injection, schedule: Q01DX001 (ip), vehicle: carboxymethylcellulose (CMC) 87 % of control | endpoint: mean survival time, dose: 400.0 mg/kg/injection, schedule: Q01DX001 (ip), vehicle: carboxymethylcellulose (CMC) 90 % of control

OCC(O)C(O)C(O)C(SCc1ccccc1)SCc1ccccc1 (stereo unspecified)
inactive: endpoint: mean survival time, dose: 75.0 mg/kg/injection, schedule: Q04DX002 (ip), vehicle: saline with Tween-80 93 % of control | endpoint: mean survival time, dose: 150.0 mg/kg/injection, schedule: Q04DX002 (ip), vehicle: saline with Tween-80 117 % of control | endpoint: mean survival time, dose: 300.0 mg/kg/injection, schedule: Q04DX002 (ip), vehicle: saline with Tween-80 101 % of control

O=C(Nc1cc(NC(=O)Nc2cccc(C3=NCCN3)c2)cc(C(=O)Nc2ccccc2)c1)Nc1cccc(C2=NCCN2)c1
inactive: [7] 94 % of control | [8] 103 % of control | [9] 97 % of control | [10] 107 % of control and 91 % of control | [11] 104 % of control

O=S(=O)(/C=C\c1ccccc1)c1ccccc1
inactive: endpoint: mean survival time, dose: 50.0 mg/kg/injection, schedule: Q01DX009 (ip), vehicle: saline 102 % of control | endpoint: mean survival time, dose: 100.0 mg/kg/injection, schedule: Q01DX001 (ip), vehicle: acetone 97 % of control | endpoint: mean survival time, dose: 100.0 mg/kg/injection, schedule: Q01DX009 (ip), vehicle: saline 97 % of control | endpoint: mean survival time, dose: 100.0 mg/kg/injection, schedule: Q04DX003 (ip), vehicle: acetone 105 % of control | endpoint: mean survival time, dose: 200.0 mg/kg/injection, schedule: Q01DX001 (ip), vehicle: acetone 106 % of control | endpoint: mean survival time, dose: 200.0 mg/kg/injection, schedule: Q01DX009 (ip), vehicle: saline 91 % of control | endpoint: mean survival time, dose: 200.0 mg/kg/injection, schedule: Q04DX003 (ip), vehicle: acetone 94 % of control | endpoint: mean survival time, dose: 400.0 mg/kg/injection, schedule: Q01DX001 (ip), vehicle: acetone 97 % of control

COCc1c(C)[nH]c2ccc(N(C)C)cc2c1=O
inactive: endpoint: mean survival time, dose: 100.0 mg/kg/injection, schedule: Q01DX009 (ip), vehicle: saline with Tween-80 97 % of control | endpoint: mean survival time, dose: 200.0 mg/kg/injection, schedule: Q01DX009 (ip), vehicle: saline with Tween-80 103 % of control | endpoint: mean survival time, dose: 400.0 mg/kg/injection, schedule: Q01DX009 (ip), vehicle: saline with Tween-80 105 % of control

C/C(CCC(=O)O)=N/N=C(N)N
inactive: [7] 100 % of control | [8] 106 % of control | [9] 106 % of control | [10] 95 % of control and 102 % of control | [11] 108 % of control | endpoint: mean survival time, dose: 480.0 mg/kg/injection, schedule: Q01DX Z (ip), vehicle: carboxymethylcellulose (CMC) 104 % of control

COc1ccc(NC(=O)c2cc3ccccc3cc2OC(=O)NC(C)(C)C)cc1
inactive: endpoint: mean survival time, dose: 100.0 mg/kg/injection, schedule: Q04DX002 (ip), vehicle: saline 103 % of control | endpoint: mean survival time, dose: 200.0 mg/kg/injection, schedule: Q04DX002 (ip), vehicle: saline 113 % of control | endpoint: mean survival time, dose: 400.0 mg/kg/injection, schedule: Q04DX002 (ip), vehicle: saline 97 % of control

O=C(O)C1CCCCC1/C=N/Nc1ccc([N+](=O)[O-])cc1[N+](=O)[O-] (stereo unspecified)
inactive: [12] 93 % of control | [13] 89 % of control

CCOC(OCC)C(C)(C)OC=O
inactive: [14] 103 % of control | [13] 103 % of control | endpoint: mean survival time, dose: 400.0 mg/kg/injection, schedule: Q01DX001 (ip), vehicle: saline 103 % of control

CC(C)(C)OC[CH2][Hg][I]
inactive: endpoint: mean survival time, dose: 12.5 mg/kg/injection, schedule: Q04DX002 (ip), vehicle: Klucel (hydroxypropylcellulose) (HPC) 96 % of control | endpoint: mean survival time, dose: 25.0 mg/kg/injection, schedule: Q04DX002 (ip), vehicle: Klucel (hydroxypropylcellulose) (HPC) 104 % of control

CC(=O)Nc1ccc(NC(=O)Nc2ccc(F)cc2)cc1
inactive: [2] 108 % of control | [4] 118 % of control | [6] 105 % of control

COc1ccc(/C=N/NC(=O)/C=C/c2ccccc2)c(OC)c1
inactive: [1] 97 % of control | [3] 98 % of control | [5] 92 % of control

C=C1C(=O)N(C)C(C(=O)OC)CC1C(CC)C(=O)OC (stereo unspecified)
inactive: endpoint: mean survival time, dose: 25.0 mg/kg/injection, schedule: Q01DX001 (ip), vehicle: saline 104 % of control | [12] 114 % of control | [14] 95 % of control | [13] 108 % of control
